Assay results published in patent US20120088668A1, “THINNING AGENT” (TAMINCO, NAAMLOZE VENNOOTSCHAP, priority 2009, published 2012).

How the values were obtained:
[1] = system: Chrysanthemum cv Herby Mixed; assay: Flower bud thinning, Chrysanthemum cv Herby Mixed: auxin/auxin precursor with or without acetaminophen; type: in vivo; conditions: for Mean Number of Buds/plant: auxins/precursors each at 10^−2 Molar solutions, AC at 3 g per hectare equivalent, applied 2 Dec. 2009 (first bud), measured 12 Jan. 2010 (flowering); for % Improvement over control ie (C) minus (A) or (B)/(C × 100): reduction of buds/plant against Control (C)
Procedure: Cultural Details: plants were sown in a commercial seed compost and then “pricked out” into a professional grade all-purpose compost in 9 cm pots set out in a randomized block design. Normal daylight plus supplementary lighting to provide a minimum of 10 hours per day. Heating was given to a minimum of 60 degrees Fahrenheit during the day and 40 degrees F. at night.
Sowing Date: 5 Oct. […] Application Date: 2 Dec. […] Measurement Date: 12 Jan. […] Measurement: Number of buds per plant.
A number of auxins or auxin precursors were applied, each at 10^−2 Molar solutions. Addition of acetaminophen (AC) was at 3 g per hectare equivalent in each test.

[2] = system: Chrysanthemum cv Herby Mixed; assay: Flower bud thinning, Chrysanthemum cv Herby Mixed: agrochemically acceptable additives with AN or AN + AC; type: in vivo; conditions: for Mean Number of Buds/plant: AN 1 g, AC 3 g actives per hectare in 250 litres water, additive per ha: Glucose 150 g, Succinic acid 50 g, Ascorbic acid 50 g, Corn oil 500 g, L-arginine 30 g, applied 4 Feb. 2010 (first bud), measured 12 Mar. 2010
Procedure: Cultural Details: plants were sown in a commercial seed compost and then “pricked out” into a professional grade all-purpose compost in 9 cm pots set out in a randomized block design. Normal daylight plus supplementary lighting to provide a minimum of 10 hours per day. Heating was given to a minimum of 60 degrees Fahrenheit during the day and 40 degrees at night. Certain agrochemically acceptable additives, as examples (rates per ha provided in the Table below), were added to either anthranilic acid ([…], applied in 250 litres water per hectare, […]) or anthranilic acid plus acetaminophen (1 gram per litre and 3 gram per litre solution respectively, applied in 250 litres water per hectare, =1 g and 3 g actives total respectively per hectare).
Sowing Date: 26 Oct. 2009, in plugs. Application Date: 4 Feb. 2010 (first bud). Measurement Date: 12 Mar. 2010 (flowering). Measurement: Number of buds per plant.

| Structure (SMILES) | Mean Number of Buds/plant [1] | % Improvement over control ie (C) minus (A) or (B)/(C × 100) [1] | Mean Number of Buds/plant [2] | % Improvement over untreated ([2]; reduction of buds/plant against Untreated) |
| --- | --- | --- | --- | --- |
| Nc1c(O)cccc1C(=O)O [3-Hydroxyanthranilic acid] | 2.5 | +7.4% |  |  |
| CC(=O)Nc1ccc(O)cc1 [AC, N-(4-hydroxypheyl)acetamide, reference compound] | 2.7 |  | 2.8 |  |
| CC(N)=O [Acetamide] | 2.3 | +14.8% |  |  |
| Nc1ccccc1C(=O)[O-].[Na+] [Anthranilic Acid monosodium salt] | 2.3 | +14.8% |  |  |
| COC(=O)c1ccccc1N [Anthranilic acid methyl ester] | 2.2 | +18.5% |  |  |
| Nc1ccccc1C(=O)O [Anthranilic acid, anthranilic acid] | 2.2 | +18.5% | 2.3 | +17.8% |
| NC(=O)Cc1c[nH]c2ccccc12 [Indole-3-acetamide] | 2.3 | +14.8% |  |  |
| N[C@@H](Cc1c[nH]c2ccccc12)C(=O)O [L-Tryptophan] | 2.4 | +11.1% |  |  |
| NCCc1c[nH]c2ccccc12 [Tryptamine] | 2.7 | +0.0% |  |  |
